Reference: PubChem BioAssay (NCI)
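Growth conditions: 96-well plates. Treatment: test compound, 48 hours, 5 concentrations. Analysis: linear interpolation between bracketing concentrations; unreached endpoints set to highest concentration. TGI denotes the concentration required for complete inhibition of growth.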

Columns and labels:
Test in all cases: NCI-60 cell line screen, 48 h
[1] = system: DMS 273 small cell lung
[2] = system: HOP-62 NSCLC
[3] = system: KM20L2 colon
[4] = system: SK-MEL-5 melanoma
[5] = system: CAKI-1 renal
[6] = system: U251 CNS
[7] = system: SF-539 CNS
[8] = system: MOLT-4 leukemia
[9] = system: NCI-H460 lung
[10] = system: LOX IMVI melanoma
[11] = system: UACC-62 melanoma
[12] = system: SK-OV-3 ovarian
[13] = system: SNB-19 CNS
[14] = system: RXF-631 renal
[15] = system: IGROV1 ovarian
[16] = system: HOP-18 NSCLC
[17] = system: NCI-H522 lung
[18] = system: M14 melanoma
[19] = system: UO-31 renal
[20] = system: A498 renal
[21] = system: LXFL 529 NSCLC
[22] = system: HOP-92 NSCLC
[23] = system: OVCAR-8 ovarian
[24] = system: COLO 205 colon
[25] = system: K-562 leukemia
[26] = system: CCRF-CEM leukemia
[27] = system: DLD-1 colon
[28] = system: DMS 114 small cell lung
[29] = system: HCT-15 colon
[30] = system: 786-0 renal
[31] = system: SK-MEL-28 melanoma
[32] = system: SF-268 CNS
[33] = system: HCT-116 colon
[34] = system: RXF 393 renal
[35] = system: SN12C renal
[36] = system: M19-MEL melanoma
[37] = system: HT29 colon
[38] = system: A549 NSCLC
[39] = system: EKVX NSCLC
[40] = system: RPMI-8226 leukemia
[41] = system: SW-620 colon
[42] = system: NCI-H23 lung
[43] = system: HL-60(TB) leukemia
[44] = system: XF 498 CNS
[45] = system: ACHN renal
[46] = system: TK-10 renal
[47] = system: SF-295 CNS
[48] = system: OVCAR-5 ovarian
[49] = system: KM12 colon
[50] = system: SNB-78 CNS
[51] = system: SK-MEL-2 melanoma
[52] = system: UACC-257 melanoma
[53] = system: HCC-2998 colon
[54] = system: SR leukemia
[55] = system: MALME-3M melanoma
[56] = system: SNB-75 CNS
[57] = system: OVCAR-3 ovarian
[58] = system: NCI-H226 lung
[59] = system: OVCAR-4 ovarian

Measured: TGI

Cn1c2c(c3ccccc31)CCN(CCCN1CCN(c3cccc(Cl)c3)CC1)C2=O
36.1 µM: [4]
10 µM: [20]
84.5 µM: [1]
44.4 µM: [28]
24.8 µM: [33]
38.4 µM: [5]
66.1 µM: [15]
35 µM: [40]
> 100 µM: [12] | [26] | [27] | [29] | [32] | [38] | [39] | [41] | [46]
90.7 µM: [14]
34.5 µM: [30]
83.1 µM: [16]
49.7 µM: [34]
31.8 µM: [24]
77.4 µM: [23]
29.9 µM: [9]
32.2 µM: [21]
27.6 µM: [44]
79.9 µM: [17]
34.3 µM: [31]
62.4 µM: [35]
18.7 µM: [22]
40.1 µM: [18]
32.1 µM: [7]
50.8 µM: [10]
42.5 µM: [36]
96.8 µM: [45]
86.2 µM: [13]
41.1 µM: [2]
39.2 µM: [11]
24.2 µM: [43]
35.8 µM: [25]
12.7 µM: [6]
32.6 µM: [19]
29 µM: [37]
11.1 µM: [3]
55.3 µM: [8]
66.9 µM: [42]

CCCCNC(=O)NNC(=O)c1cc(/C=C/c2cccc([N+](=O)[O-])c2)ncn1
> 100 µM: [1] | [2] | [47] | [3] | [4] | [5] | [8] | [48] | [9] | [49] | [10] | [50] | [51] | [11] | [12] | [52] | [13] | [14] | [15] | [16] | [17] | [18] | [19] | [20] | [22] | [23] | [53] | [54] | [24] | [25] | [26] | [27] | [28] | [29] | [30] | [31] | [32] | [55] | [33] | [34] | [35] | [36] | [37] | [56] | [38] | [39] | [57] | [42] | [43] | [44] | [45] | [46] | [58]
33.7 µM: [41]
59.8 µM: [40]
44.8 µM: [6]

CC(=O)c1cccc(NC(=O)C(=O)C(C(=O)NN)c2ccccc2)c1 (configuration not stated)
> 100 µM: [1] | [2] | [3] | [4] | [5] | [6] | [7] | [8] | [48] | [9] | [49] | [10] | [51] | [11] | [12] | [52] | [13] | [14] | [15] | [16] | [17] | [18] | [19] | [20] | [21] | [22] | [23] | [53] | [24] | [25] | [26] | [27] | [28] | [29] | [30] | [31] | [32] | [55] | [33] | [34] | [35] | [36] | [37] | [56] | [38] | [39] | [57] | [40] | [41] | [42] | [59] | [44] | [45] | [46] | [58]
